Article PMC10461224, “Development of an Affinity-Based Probe to Profile Endogenous Human Adenosine A3 Receptor Expression” (Journal of Medicinal Chemistry, 2023)

Molecular target: T1, hA3AR (Homo sapiens, UniProt P0DMS8)
T1 construct: expressed in transfected cells; host or cells: CHO cells (CHOhA3AR), gift of Prof; K.N. Klotz, University of Würzburg; used as membrane fractions or live cells
T1 sequence (P0DMS8 1-318): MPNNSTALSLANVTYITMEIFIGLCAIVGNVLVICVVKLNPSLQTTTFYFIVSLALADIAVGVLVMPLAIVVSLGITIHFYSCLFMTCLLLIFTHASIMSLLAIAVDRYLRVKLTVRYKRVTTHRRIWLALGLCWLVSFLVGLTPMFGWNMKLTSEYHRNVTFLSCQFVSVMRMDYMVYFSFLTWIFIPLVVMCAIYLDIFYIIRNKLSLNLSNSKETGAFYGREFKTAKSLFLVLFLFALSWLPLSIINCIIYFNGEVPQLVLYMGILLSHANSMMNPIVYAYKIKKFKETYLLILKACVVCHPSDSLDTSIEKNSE
Assay: SDS-PAGE labeling on live CHO cells
Type: cell-based
Settings: 50 nM, 1 h, 37 °C; signal reduced by PSB-11
Method: CHOhA3AR and CHO-K1 cells were cultured as mentioned above. Cells were grown to ∼90% confluency in 10 cm φ plates. 10 plates were used per condition per experiment. The medium was removed, and the competing ligand (PSB-11, unless noted otherwise) in medium (final concentration: 1 μM) was added. Cells were incubated for 1 h (37 °C, 5% CO2). The medium was removed, and the affinity-based probe (final concentration: 50 nM in medium) was added. The cells were incubated for 1 h (37 °C, 5% CO2) and washed with PBS to get rid of all the non-bound probes. Subsequently, the membranes were prepared and collected using the procedure as described above. Membrane aliquots were diluted to a concentration of 1 μg/μL, and 20 μL was taken per sample. PNGase (0.5 μL, 5 U) or MilliQ was added, and the samples were incubated for 1 h at rt. Next, the click mix was freshly prepared by adding together 5 parts 100 mM CuSO4 in MilliQ, 3 parts 1 M NaAsc in MilliQ, 1 part 100 mM THPTA in MilliQ, and 1 part 100 μM Cy5-N3 in DMSO. […] In-gel fluorescence was measured on a Bio-Rad Universal Hood III using Cy3 (605/50 filter) or Cy5 (695/55 filter) settings. […]
Gel images were analyzed using Image Lab software version 6.0.1 (Bio-Rad). Quantification was done in the following manner: the area under the curve (AUC) of the bands was selected using the ‘Lane Profile’ tab and the adjusted volumes were taken. […]

C#CCOc1ccn2c(c1)nc1c2c(=O)n(CCC)c(=O)n1CCCNC(=O)c1ccc(S(=O)(=O)F)cc1 [compound 9, 4-((3-(2,4-Dioxo-8-(prop-2-yn-1-yloxy)-3-propyl-3,4-dihydropyrido[2,1-f]purin-1(2H)-yl)propyl)carbamoyl)benzenesulfonyl fluoride]
labeling of hA3AR on live CHO cells (SDS-PAGE): binds and labels the hA3AR on live cells
